Measurements from ChEMBL document CHEMBL3046608, “Efficient isolation of catechins from green tea and characterization of interaction property of catechins with proteins by HPLCUV/DAD combined with ultrafiltration” (Med Chem Res, 2012).

Tests used:
[1] = Diluted plasma protein binding in Rattus norvegicus Wistar (rat) by ultrafiltration-HPLC-UV/DAD method; type: ADME, cell-free; conditions: read-out: PPB (converted)
[2] = (§1) Total plasma protein binding in Homo sapiens (human) by ultrafiltration-HPLC-UV/DAD method; type: ADME, cell-free; conditions: read-out: PPB (converted)
[3] = (§2) Total plasma protein binding in Rattus norvegicus Wistar (rat) by ultrafiltration-HPLC-UV/DAD method; type: ADME, cell-free; conditions: Wistar, read-out: PPB (converted)
Albumin [4] = target: T1, Albumin (Homo sapiens, UniProt P02768); assay: Binding affinity to 0.6 mM Homo sapiens (human) serum albumin by ultrafiltration-HPLC-UV/DAD method; type: ADME
Rattus norvegicus [5] = species on record: Rattus norvegicus; assay: Binding affinity to Rattus norvegicus Wistar (rat) pancreatic membrane protein by ultrafiltration-HPLC-UV/DAD method
[6] = Diluted plasma protein binding in Homo sapiens (human) by ultrafiltration-HPLC-UV/DAD method; type: ADME, cell-free; conditions: read-out: PPB (converted)
Albumin [7] = target: T1, Albumin; assay: Binding affinity to 0.06 mM Homo sapiens (human) serum albumin by ultrafiltration-HPLC-UV/DAD method; type: ADME
Plasma [8] = assay: as §1; type: ADME, cell-free
Plasma [9] = assay: as §2; type: ADME, cell-free
Lipid bilayer = assay: Binding affinity to Rattus norvegicus Wistar (rat) pancreatic phospholipid membrane by ultrafiltration-HPLC-UV/DAD method
Rattus norvegicus [10] = species on record: Rattus norvegicus; assay: Selectivity ratio of binding affinity to Rattus norvegicus Wistar (rat) pancreatic membrane protein to Rattus norvegicus Wistar (rat) pancreatic phospholipid membrane

T1 sequence (P02768 whole entry): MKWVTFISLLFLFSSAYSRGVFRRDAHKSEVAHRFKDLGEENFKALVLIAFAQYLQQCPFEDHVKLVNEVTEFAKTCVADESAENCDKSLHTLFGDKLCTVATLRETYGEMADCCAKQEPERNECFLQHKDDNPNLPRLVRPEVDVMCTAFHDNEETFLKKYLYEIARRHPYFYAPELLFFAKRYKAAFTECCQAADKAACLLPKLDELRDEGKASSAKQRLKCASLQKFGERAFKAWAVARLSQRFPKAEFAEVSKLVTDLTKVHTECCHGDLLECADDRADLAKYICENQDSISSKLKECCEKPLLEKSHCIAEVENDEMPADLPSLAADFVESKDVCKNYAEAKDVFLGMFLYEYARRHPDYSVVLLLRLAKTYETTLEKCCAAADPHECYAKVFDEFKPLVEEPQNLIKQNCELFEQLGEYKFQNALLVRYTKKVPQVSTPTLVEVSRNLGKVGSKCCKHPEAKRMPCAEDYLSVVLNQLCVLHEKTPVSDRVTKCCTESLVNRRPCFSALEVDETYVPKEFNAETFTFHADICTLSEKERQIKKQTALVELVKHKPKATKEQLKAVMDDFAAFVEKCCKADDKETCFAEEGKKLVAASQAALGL

Compound	fraction unbound [1]	fraction unbound [2]	fraction unbound [3]	Activity (Albumin [4]) [%]	Activity (Rattus norvegicus [5]) [%]	fraction unbound [6]	Activity (Albumin [7]) [%]	PPB (Plasma [8]) [%]	PPB (Plasma [9]) [%]	Activity (Lipid bilayer) [%]	Ratio (Rattus norvegicus [10])
Oc1cc(O)c2c(c1)O[C@@H](c1ccc(O)c(O)c1)[C@H](O)C2 [(-)-CATECHIN]	0.55	0.15	0.15	65.6	36.9	0.55	30.9	–	–	–	–
Cn1c(=O)c2c(ncn2C)n(C)c1=O [CAFFEINE]	–	–	–	72.7	–	–	58.4	80	80	62.8	–
O=C(O[C@@H]1Cc2c(O)cc(O)cc2O[C@@H]1c1ccc(O)c(O)c1)c1cc(O)c(O)c(O)c1 [EPICATECHIN GALLATE]	–	0.15	0.15	85.8	39.2	–	69.5	–	–	91.5	2
O=C(O[C@@H]1Cc2c(O)cc(O)cc2O[C@@H]1c1cc(O)c(O)c(O)c1)c1cc(O)c(O)c(O)c1 [EPIGALOCATECHIN GALLATE]	–	0.15	0.15	85.2	37.4	–	68.7	–	–	78.8	–
